Assay [1] relates to S. aureus (MRSA) biofilms. Description: in vitro sustained inhibition biofilm assay, bacterial. Format: cell-based, Staphylococcus aureus. As for the experimental part:
In vitro biofilm formation was tested using two assays, sustained inhibition and disruption. Both assays assess biofilm formed on polystyrene plates. The first, tests the effects of amino acid solution on a developing biofilm, while the latter tests the effects of the solution on a pre-formed mature biofilm, both compared to media without supplemented amino acids.
(§1) Other amino acids in the blood of animals could combat bacterial and fungal biofilm and therefore may be useful in treating these bacterial and fungal infections that would lie on the external surfaces of infected animals such as humans and could also be used to combat these pathogens on instruments and surfaces that need to be treated. Two types of biofilm assays were performed: a sustained inhibition assay and a disruption assay. The sustained inhibition assay assessed the compound's ability to prevent biofilm development throughout all stages of biofilm formation, while the disruption assay assessed the compound's ability to break up an existing mature biofilm.
(§2) For fungal biofilm assays, all solutions were prepared in RPMI 1640 medium. All bacterial biofilm solutions were prepared in Tryptic Soy Broth (TSB), supplemented with 1% glucose (henceforth referred to as TSB-G). All subsequent procedures were performed in a manner that maintained sterility. A solution of each amino acid to be tested was prepared in weight to volume concentrations ranging from 0.1-5.0%. Amino acids were also tested in combinations. Compound solutions were homogenized with gentle agitation in the dark (4° C., 24 hours) before use.
Bacterial strains were streaked on Blood Agar plates (5% sheep blood in Tryptic Soy Agar) and incubated at 37° C. for 24 hours. A single colony from each strain to be tested was inoculated in a TSB broth and grown for 12 hours, at 37° C. shaking at 225 rpm. For the bacterial biofilm inhibition assays, 1 μL of saturated overnight cell culture was added to either 80 μL of TSB-G, or TSB-G supplemented with the amino acid compound solution to be tested, in a 384-well plate. The cells were allowed to adhere to the plate for 60 minutes at 37° C. without shaking. The media was carefully aspirated and 80 μL of TSB-G, or TSB-G supplemented with the amino acid compound solution was added to the plate. The plate was further incubated for 24 hours at 37° C. without shaking. Media was carefully aspirated and the biofilm was measured by optical density at 600 nm. Eight or twelve replicates were performed for each tested condition and the reported values are normalized to the control (TSB-G media only). For the bacterial biofilm disruption assays, 80 μL of TSB-G was added to the plate, along with 1 μL of overnight cell culture. The cells were allowed to adhere to the plate for 60 minutes at 37° C. with no shaking. The media was carefully aspirated and 80 μL of TSB-G was added to the plate. The plate was further incubated for 24 hours at 37° C. with no shaking. Media was carefully aspirated from the mature biofilm and 80 μL of TSB-G, or TSB-G supplemented with the amino acid to be tested, was gently added to the plate. The plate was further incubated for 24 hours at 37° C. without shaking. Media was aspirated and the biofilm was measured by optical density at 600 nm. Twelve replicates were performed for each tested condition and the reported values are normalized to the control (TSB-G media only).
For inhibition assay, 1 μl of overnight cell culture was added to either 80 μl of TSB-G, or TSB-G supplemented with the amino acid to be tested, in a 384-well plate. The cells were allowed to adhere to the plate for 60 minutes at 37° C. with no shaking. The media was carefully aspirated and 80 μl of TSB-G, or TSB-G supplemented with amino acid was added to the plate. The plate was further incubated for 24 hours at 37° C. with no shaking. Media was carefully aspirated and the biofilm was measured by optical density at 600 nm. […]

For assay [2], the system named is bacteria (S. aureus) biofilm and fungal (C. albicans) biofilm. Description: sustained inhibition biofilm assay, bacterial and fungal taken together. As to conditions: 1% amino acid. Format: cell-based, Staphylococcus aureus; Candida albicans. As for the experimental part: as §1, §2
(§3) Fungal strains were streaked on Yeast Peptone Dextrose (YPD) agar plates and incubated at 30° C. for 48 hours. A single colony from each strain to be tested was inoculated into YPD broth and grown for 12 hours, at 30° C., shaking at 225 rpm. For the fungal biofilm inhibition assay, 1 μl of saturated overnight cell culture was added to either 80 μL of RPMI-1640 or RPMI-1640 supplemented with the amino acid compound solution to be tested, in a 384-well plate. […] Media was carefully aspirated and the biofilm was measured by optical density at 600 nm. […] Media was carefully aspirated and the biofilm was measured by optical density at 600 nm. […]
(§4) Bacterial strains were streaked on Blood Agar plates (5% sheep blood in Tryptic Soy Agar) and incubated at 37° C. for 24 hours. […] Media was carefully aspirated and the biofilm was measured by optical density at 600 nm. […]

Assay [3] has the same test system. Description: disruption biofilm assay, bacterial and fungal taken together. Format: cell-based, Staphylococcus aureus; Candida albicans. As to the method: as §1, §2, §3, §4
[4] abbreviates: sustained inhibition, S. aureus, 1% amino acid, p<0.001.
[5] abbreviates: disruption, bacterial and fungal biofilm, 1% amino acid.

Structures are written as SMILES.

Consider `N[C@@H](CCC(=O)O)C(=O)O` [Glutamic Acid, L-glutamic acid], for which the “Reduce B Biofilm” value in assay [1] (MRSA) was “●● (two dots [i.e. ●●] signifies major effect (greater than about 30% change))”. Also, the “Reduce Both” value in assay [2] is “●● (two dots [i.e. ●●] signifies major effect (greater than about 30% change))”; in assay [3] it was “● (a single dot [i.e. ●] signifies minor effect (from about 10 to about 30% change))”.

`N[C@@H](CC(=O)O)C(=O)O` [Aspartic Acid, L-aspartic acid]: the “Reduce B Biofilm” value in assay [1] (setting [4]) is “●● (two dots [i.e. ●●] signifies major effect (greater than about 30% change))”. Further, the “Reduce Both” value in assay [2] and in assay [3] (setting [5]) was “●● (two dots [i.e. ●●] signifies major effect (greater than about 30% change))” throughout.

In the case of `N[C@@H](CS)C(=O)O` [Cysteine, L-cysteine], the “Reduce B Biofilm” value in assay [1] (setting [4]) was “●● (two dots [i.e. ●●] signifies major effect (greater than about 30% change))”. For the same molecule, the “Reduce Both” value in assay [2] and in assay [3] (setting [5]) was “●● (two dots [i.e. ●●] signifies major effect (greater than about 30% change))” throughout.

Values taken from patent US12226386B2, “Compositions and methods for treating biofilms” (The Regents of the University of California, priority 2018, dated 2025).
